Where two headings read alike, the source gives them in different places.
Test system: NLRP3
Experiment: IL-1β secretion assay in PMA-differentiated, LPS/nigericin-stimulated THP-1 cells (384-well, ELISA read-out)
Assay type: cell-based, human
Conditions: Homo sapiens
Procedure, shortened: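 Secreted IL-1β quantified by capture ELISA from supernatants of PMA-differentiated THP-1 cells (30K per well). Sequence: LPS 25 ng/mL priming 2 h, compound 1 h, nigericin 2 h; dose-responses normalized between high (LPS plus 5 μM nigericin) and low (LPS alone) controls.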

[1] = THP-1, IL-1β secretion, PMA-differentiated THP-1 cells, LPS then nigericin stimulation, ELISA read at 450 nm, read-out: Activity
[2] = THP-1, Table 4, IL-1β secretion, LPS/nigericin-stimulated THP-1 cells, read-out: IC50

| Compound | IC50 [1] | IC50 [2] |
| --- | --- | --- |
| O=C(CN1CC2(CC2)c2cc(Br)ccc2C1=O)Nc1nc2ccccn2n1 [Example 181] | < 10000 nM | 143 nM |
| Cc1ccnc(NC(=O)CN2CC3(CC3)c3cc(Br)ccc3C2=O)c1 [Example 182, 2-(6-bromo-1-oxospiro[3H-isoquinoline-4,1′-cyclopropane]-2-yl)-N-(4-methylpyridin-2-yl)acetamide] | < 10000 nM | 3140 nM |
| CS(=O)(=O)c1ccc(NC(=O)CN2CC3(CC3)c3cc(Br)ccc3C2=O)c(Cl)c1 [Example 183, 2-(6-bromo-1-oxospiro[3H-isoquinoline-4,1′-cyclopropane]-2-yl)-N-(2-chloro-4-methylsulfonylphenyl)acetamide] | < 10000 nM | 8080 nM |
| Cc1nc(NC(=O)CN2CC3(CC3)c3cc(Br)ccc3C2=O)ncc1F [Example 184, 2-(6-bromo-1-oxospiro[3H-isoquinoline-4,1′-cyclopropane]-2-yl)-N-(5-fluoro-4-methylpyrimidin-2-yl)acetamide] | < 10000 nM | 651 nM |
| COc1cnc(NC(=O)CN2CC3(CC3)c3cc(Br)ccc3C2=O)nc1 [Example 185, 2-(6-bromo-1-oxospiro[3H-isoquinoline-4,1′-cyclopropane]-2-yl)-N-(5-methoxypyrimidin-2-yl)acetamide] | < 10000 nM | 469 nM |
| O=C(CN1CC2(CC2)c2cc(Br)ccc2C1=O)Nc1ncc(-n2cccn2)cc1F [Example 186, 2-(6-bromo-1-oxospiro[3H-isoquinoline-4,1′-cyclopropane]-2-yl)-N-(3-fluoro-5-pyrazol-1-ylpyridin-2-yl)acetamide] | < 10000 nM | 5230 nM |
| Cc1nc(-c2ccnc(NC(=O)CN3CC4(CC4)c4cc(Br)ccc4C3=O)n2)cs1 [Example 187, 2-(6-bromo-1-oxospiro[3H-isoquinoline-4,1′-cyclopropane]-2-yl)-N-[4-(2-methyl-1,3-thiazol-4-yl)pyrimidin-2-yl]acetamide] | < 10000 nM | 871 nM |
| O=C(CN1CC2(CC2)c2cc(Br)ccc2C1=O)Nc1nc2n(n1)CCC2 [Example 188, 2-(6-bromo-1-oxospiro[3H-isoquinoline-4,1′-cyclopropane]-2-yl)-N-(6,7-dihydro-5H-pyrrolo[1,2-b][1,2,4]triazol-2-yl)acetamide] | < 10000 nM | 1290 nM |
| Cn1ncc2nc(NC(=O)CN3CC4(CC4)c4cc(Br)ccc4C3=O)ccc21 [Example 189, 2-(6-bromo-1-oxospiro[3H-isoquinoline-4,1′-cyclopropane]-2-yl)-N-(1-methylpyrazolo[4,3-b]pyridin-5-yl)acetamide] | < 10000 nM | 3760 nM |
| Cn1cc2nc(NC(=O)CN3CC4(CC4)c4cc(Br)ccc4C3=O)ccc2n1 [Example 190, 2-(6-bromo-1-oxospiro[3H-isoquinoline-4,1′-cyclopropane]-2-yl)-N-(2-methylpyrazolo[4,3-b]pyridin-5-yl)acetamide] | < 10000 nM | 691 nM |
| O=C(CN1CC2(CC2)c2cc(Br)ccc2C1=O)Nc1ccc2ccncc2c1 [Example 191, 2-(6-bromo-1-oxospiro[3H-isoquinoline-4,1′-cyclopropane]-2-yl)-N-isoquinolin-7-ylacetamide] | < 10000 nM | 1150 nM |
| O=C(CN1CC2(CC2)c2cc(Br)ccc2C1=O)Nc1ncncn1 [Example 192, 2-(6-bromo-1-oxospiro[3H-isoquinoline-4,1′-cyclopropane]-2-yl)-N-(1,3,5-triazin-2-yl)acetamide] | < 10000 nM | 309 nM |
| O=C(CN1CC2(CC2)c2cc(Br)ccc2C1=O)Nc1ncc(C(F)(F)F)cn1 [Example 193, 2-(6-bromo-1-oxospiro[3H-isoquinoline-4,1′-cyclopropane]-2-yl)-N-[5-(trifluoromethyl)pyrimidin-2-yl]acetamide] | < 10000 nM | 240 nM |
| O=C(CN1CC2(CC2)c2cc(Br)ccc2C1=O)Nc1ncc(C2CC2)cn1 [Example 194, 2-(6-bromo-1-oxospiro[3H-isoquinoline-4,1′-cyclopropane]-2-yl)-N-(5-cyclopropylpyrimidin-2-yl)acetamide] | < 10000 nM | 390 nM |
| O=C(CN1CC2(CC2)c2cc(Br)ccc2C1=O)Nc1ccc(C(F)F)cn1 [Example 195, 2-(6-bromo-1-oxospiro[3H-isoquinoline-4,1′-cyclopropane]-2-yl)-N-[5-(difluoromethyl)pyridin-2-yl]acetamide] | < 10000 nM | 1010 nM |
| O=C(CN1CC2(CC2)c2cc(Br)ccc2C1=O)Nc1ccc(Cl)cn1 [Example 196, 2-(6-bromo-1-oxospiro[3H-isoquinoline-4,1′-cyclopropane]-2-yl)-N-(5-chloropyridin-2-yl)acetamide] | < 10000 nM | 516 nM |
| O=C(CN1CC2(CC2)c2cc(Br)ccc2C1=O)Nc1ncc2ccccc2n1 [Example 197, 2-(6-bromo-1-oxospiro[3H-isoquinoline-4,1′-cyclopropane]-2-yl)-N-quinazolin-2-ylacetamide] | < 10000 nM | 1250 nM |
| O=C(CN1CC2(CC2)c2cc(Br)ccc2C1=O)Nc1ccc2ccccc2n1 [Example 198, 2-(6-bromo-1-oxospiro[3H-isoquinoline-4,1′-cyclopropane]-2-yl)-N-quinolin-2-ylacetamide] | < 10000 nM | 1500 nM |
| O=C(CN1CC2(CC2)c2cc(Br)ccc2C1=O)Nc1ccc2cccnc2n1 [Example 199, 2-(6-bromo-1-oxospiro[3H-isoquinoline-4,1′-cyclopropane]-2-yl)-N-(1,8-naphthyridin-2-yl)acetamide] | < 10000 nM | 1370 nM |
| O=C(CN1CC2(CC2)c2cc(Br)ccc2C1=O)Nc1ccc2cncn2c1 [Example 201, 2-(6-bromo-1-oxospiro[3H-isoquinoline-4,1′-cyclopropane]-2-yl)-N-imidazo[1,5-a]pyridin-6-ylacetamide] | < 10000 nM | 1320 nM |
| Cc1cnc(NC(=O)CN2CC3(CC3)c3cc(Br)ccc3C2=O)nc1 [Example 202, 2-(6-bromo-1-oxospiro[3H-isoquinoline-4,1′-cyclopropane]-2-yl)-N-(5-methylpyrimidin-2-yl)acetamide] | < 10000 nM | 187 nM |
| CCc1cnc(NC(=O)CN2CC3(CC3)c3cc(Br)ccc3C2=O)nc1 [Example 204, 2-(6-bromo-1-oxospiro[3H-isoquinoline-4,1′-cyclopropane]-2-yl)-N-(5-ethylpyrimidin-2-yl)acetamide] | < 10000 nM | 646 nM |
| O=C(CN1CC2(CC2)c2cc(Br)ccc2C1=O)Nc1nc2ccccc2o1 [Example 205, N-(1,3-benzoxazol-2-yl)-2-(6-bromo-1-oxospiro[3H-isoquinoline-4,1′-cyclopropane]-2-yl)acetamide] | < 10000 nM | 306 nM |
| O=C(CN1CC2(CC2)c2cc(Br)ccc2C1=O)Nc1ccc2cnccc2n1 [Example 206, 2-(6-bromo-1-oxospiro[3H-isoquinoline-4,1′-cyclopropane]-2-yl)-N-(1,6-naphthyridin-2-yl)acetamide] | < 10000 nM | 1260 nM |
| N#Cc1ccc2nc(NC(=O)CN3CC4(CC4)c4cc(Br)ccc4C3=O)oc2c1 [Example 207, 2-(6-bromo-1-oxospiro[3H-isoquinoline-4,1′-cyclopropane]-2-yl)-N-(6-cyano-1,3-benzoxazol-2-yl)acetamide] | < 10000 nM | 487 nM |

— patent US20230416205A1, “COMPOUNDS, COMPOSITIONS, AND METHODS” (Denali Therapeutics Inc, priority 2020, published 2023)
